Test: Organ biodistribution of [18F]WC-4-138 in athymic nude mice
Type: in vivo
Experimental: This example illustrates biodistribution of Compound 12 ([^18F]WC-4-138) in mice. Eight week old, female, athymic nude mice (Harlan) were injected via tail vein with [^18F]WC4-138. Mice were sacrificed by cervical dislocation 5 or 30 minutes after IV tracer injection of 30 μCi, 1 or 2 hours after injection of 45 μCi, or 4 hours after injection of 60 μCi of [^18F]WC-4-138. The acetonitrile-soluble fractions of plasma or liver and the control parent compound were separated via reverse-phase high performance liquid chromatography (HPLC) and the radioactivity of each fraction was quantified. The percent parent compound of each sample was calculated as the portion of radioactivity associated with the HPLC fractions that contained the parent compound. Data are presented as mean±SD, n=3.
Four mice were sacrificed at each timepoint, with the exception of the 2 hour timepoint (n=3). Blood, heart, lung, muscle, liver, spleen, fat, adrenal glands, kidney, uterus, ovaries, bone, bone marrow, pancreas, stomach, small intestine, and large intestine were collected from each animal. All organs were blotted to remove excess blood, weighed, and counted in a Beckmann 6000 gamma counter. The percent injected dose per gram (% ID/g) of tissue was determined for each organ.

- % ID/g, Adrenals (5 min after IV injection): 11.80 +/− 0.46 % ID/g
- % ID/g, Blood (5 min after IV injection): 1.60 +/− 0.21 % ID/g
- % ID/g, Bone (5 min after IV injection): 3.40 +/− 0.74 % ID/g
- % ID/g, Brain (5 min after IV injection): 0.55 +/− 0.16 % ID/g
- % ID/g, Fat (5 min after IV injection): 1.16 +/− 0.49 % ID/g
- % ID/g, Heart (5 min after IV injection): 6.57 +/− 0.45 % ID/g
- % ID/g, Kidney (5 min after IV injection): 35.63 +/− 3.33 % ID/g
- % ID/g, Liver (5 min after IV injection): 12.50 +/− 1.08 % ID/g
- % ID/g, Lower Large Intestine (5 min after IV injection): 4.17 +/− 0.42 % ID/g
- % ID/g, Lung (5 min after IV injection): 11.89 +/− 0.89 % ID/g
- % ID/g, Marrow (5 min after IV injection): 0.06 +/− 0.02 % ID/g
- % ID/g, Muscle (5 min after IV injection): 2.05 +/− 0.48 % ID/g
- % ID/g, Ovaries (5 min after IV injection): 4.71 +/− 1.21 % ID/g
- % ID/g, Pancress (5 min after IV injection): 9.67 +/− 1.98 % ID/g
- % ID/g, Small Intestine (5 min after IV injection): 12.64 +/− 1.45 % ID/g
- % ID/g, Spleen (5 min after IV injection): 12.47 +/− 6.69 % ID/g
- % ID/g, Stomach (5 min after IV injection): 3.17 +/− 0.66 % ID/g
- % ID/g, Thyroid (5 min after IV injection): 4.18 +/− 1.18 % ID/g
- % ID/g, Upper Large Intestine (5 min after IV injection): 7.84 +/− 1.02 % ID/g
- % ID/g, Uterus (5 min after IV injection): 3.44 +/− 2.01 % ID/g
- % ID/g, Adrenals (30 min after IV injection): 5.18 +/− 0.94 % ID/g
- % ID/g, Blood (30 min after IV injection): 2.07 +/− 0.16 % ID/g
- % ID/g, Bone (30 min after IV injection): 4.49 +/− 0.34 % ID/g
- % ID/g, Brain (30 min after IV injection): 1.03 +/− 0.11 % ID/g
- % ID/g, Fat (30 min after IV injection): 1.22 +/− 0.25 % ID/g
- % ID/g, Heart (30 min after IV injection): 3.44 +/− 0.30 % ID/g
- % ID/g, Kidney (30 min after IV injection): 21.14 +/− 2.21 % ID/g
- % ID/g, Liver (30 min after IV injection): 8.24 +/− 0.62 % ID/g
- % ID/g, Lower Large Intestine (30 min after IV injection): 7.43 +/− 0.59 % ID/g
- % ID/g, Lung (30 min after IV injection): 5.33 +/− 0.48 % ID/g
- % ID/g, Marrow (30 min after IV injection): 0.11 +/− 0.02 % ID/g
- % ID/g, Muscle (30 min after IV injection): 2.39 +/− 0.15 % ID/g
- % ID/g, Ovaries (30 min after IV injection): 5.31 +/− 0.82 % ID/g
- % ID/g, Pancress (30 min after IV injection): 10.27 +/− 1.28 % ID/g
- % ID/g, Small Intestine (30 min after IV injection): 13.00 +/− 0.75 % ID/g
- % ID/g, Spleen (30 min after IV injection): 26.85 +/− 3.52 % ID/g
- % ID/g, Stomach (30 min after IV injection): 3.77 +/− 0.73 % ID/g
- % ID/g, Thyroid (30 min after IV injection): 4.03 +/− 0.28 % ID/g
- % ID/g, Upper Large Intestine (30 min after IV injection): 14.07 +/− 1.72 % ID/g
- % ID/g, Uterus (30 min after IV injection): 4.53 +/− 1.45 % ID/g
- % ID/g, Adrenals (60 min after IV injection): 3.51 +/− 1.08 % ID/g
- % ID/g, Blood (60 min after IV injection): 2.30 +/− 0.28 % ID/g
- % ID/g, Bone (60 min after IV injection): 5.21 +/− 0.40 % ID/g
- % ID/g, Brain (60 min after IV injection): 1.24 +/− 0.13 % ID/g
- % ID/g, Fat (60 min after IV injection): 1.16 +/− 0.45 % ID/g
- % ID/g, Heart (60 min after IV injection): 2.88 +/− 0.23 % ID/g
- % ID/g, Kidney (60 min after IV injection): 14.02 +/− 1.84 % ID/g
- % ID/g, Liver (60 min after IV injection): 6.50 +/− 0.52 % ID/g
- % ID/g, Lower Large Intestine (60 min after IV injection): 10.53 +/− 1.45 % ID/g
- % ID/g, Lung (60 min after IV injection): 3.99 +/− 0.29 % ID/g
- % ID/g, Marrow (60 min after IV injection): 0.13 +/− 0.04 % ID/g
- % ID/g, Muscle (60 min after IV injection): 2.21 +/− 0.31 % ID/g
- % ID/g, Ovaries (60 min after IV injection): 4.75 +/− 0.36 % ID/g
- % ID/g, Pancress (60 min after IV injection): 9.18 +/− 1.37 % ID/g
- % ID/g, Small Intestine (60 min after IV injection): 8.85 +/− 1.49 % ID/g
- % ID/g, Spleen (60 min after IV injection): 25.75 +/− 1.95 % ID/g
- % ID/g, Stomach (60 min after IV injection): 3.62 +/− 0.37 % ID/g
- % ID/g, Thyroid (60 min after IV injection): 3.32 +/− 0.19 % ID/g
- % ID/g, Upper Large Intestine (60 min after IV injection): 15.62 +/− 2.31 % ID/g
- % ID/g, Uterus (60 min after IV injection): 5.51 +/− 0.79 % ID/g
- % ID/g, Adrenals (120 min after IV injection): 2.69 +/− 0.44 % ID/g
- % ID/g, Blood (120 min after IV injection): 2.54 +/− 0.13 % ID/g
- % ID/g, Bone (120 min after IV injection): 6.56 +/− 0.80 % ID/g
- % ID/g, Brain (120 min after IV injection): 1.58 +/− 0.19 % ID/g
- % ID/g, Fat (120 min after IV injection): 1.07 +/− 0.11 % ID/g
- % ID/g, Heart (120 min after IV injection): 2.68 +/− 0.09 % ID/g
- % ID/g, Kidney (120 min after IV injection): 8.77 +/− 0.72 % ID/g
- % ID/g, Liver (120 min after IV injection): 4.58 +/− 0.29 % ID/g
- % ID/g, Lower Large Intestine (120 min after IV injection): 13.35 +/− 0.87 % ID/g
- % ID/g, Lung (120 min after IV injection): 3.17 +/− 0.28 % ID/g
- % ID/g, Marrow (120 min after IV injection): 0.07 +/− 0.01 % ID/g
- % ID/g, Muscle (120 min after IV injection): 2.07 +/− 0.11 % ID/g
- % ID/g, Ovaries (120 min after IV injection): 4.25 +/− 0.52 % ID/g
- % ID/g, Pancress (120 min after IV injection): 5.37 +/− 0.64 % ID/g
- % ID/g, Small Intestine (120 min after IV injection): 6.62 +/− 0.75 % ID/g
- % ID/g, Spleen (120 min after IV injection): 17.19 +/− 1.08 % ID/g
- % ID/g, Stomach (120 min after IV injection): 2.56 +/− 0.27 % ID/g
- % ID/g, Thyroid (120 min after IV injection): 3.46 +/− 0.10 % ID/g
- % ID/g, Upper Large Intestine (120 min after IV injection): 10.28 +/− 0.65 % ID/g
- % ID/g, Uterus (120 min after IV injection): 4.13 +/− 0.20 % ID/g
- % ID/g, Adrenals (240 min after IV injection): 1.74 +/− 0.34 % ID/g
- % ID/g, Blood (240 min after IV injection): 1.61 +/− 0.05 % ID/g
- % ID/g, Bone (240 min after IV injection): 9.29 +/− 1.17 % ID/g
- % ID/g, Brain (240 min after IV injection): 1.17 +/− 0.05 % ID/g
- % ID/g, Fat (240 min after IV injection): 0.62 +/− 0.44 % ID/g
- % ID/g, Heart (240 min after IV injection): 1.67 +/− 0.06 % ID/g
- % ID/g, Kidney (240 min after IV injection): 3.67 +/− 0.54 % ID/g
- % ID/g, Liver (240 min after IV injection): 2.43 +/− 0.25 % ID/g
- % ID/g, Lower Large Intestine (240 min after IV injection): 7.17 +/− 0.50 % ID/g
- % ID/g, Lung (240 min after IV injection): 2.03 +/− 0.43 % ID/g
- % ID/g, Marrow (240 min after IV injection): 0.04 +/− 0.01 % ID/g
- % ID/g, Muscle (240 min after IV injection): 1.35 +/− 0.09 % ID/g
- % ID/g, Ovaries (240 min after IV injection): 2.00 +/− 0.41 % ID/g
- % ID/g, Pancress (240 min after IV injection): 2.75 +/− 0.44 % ID/g
- % ID/g, Small Intestine (240 min after IV injection): 3.04 +/− 0.25 % ID/g
- % ID/g, Spleen (240 min after IV injection): 9.80 +/− 1.01 % ID/g
- % ID/g, Stomach (240 min after IV injection): 1.20 +/− 0.08 % ID/g
- % ID/g, Thyroid (240 min after IV injection): 3.23 +/− 0.49 % ID/g
- % ID/g, Upper Large Intestine (240 min after IV injection): 4.33 +/− 0.57 % ID/g
- % ID/g, Uterus (240 min after IV injection): 2.05 +/− 0.31 % ID/g
Compound: O=C1NCCn2c(-c3ccc(OCC[18F])cc3)nc3cccc1c32 [[^18F]12]

From patent publication US9993570B2, “Radiolabeled tracers for poly (ADP-ribose) polymerase-1 (PARP-1), methods and uses therefor” (Washington University, priority 2014, dated 2018)
